From ChEMBL document CHEMBL4043266, “Pentacyclic triterpenes as α-glucosidase and α-amylase inhibitors: Structure-activity relationships and the synergism with acarbose” (Bioorg Med Chem Lett, 2017)

What was measured:
Pancreatic alpha-amylase = target: T1, Pancreatic alpha-amylase (Sus scrofa, UniProt P00690); test: Inhibition of porcine pancreatic alpha-amylase using starch as substrate preincubated for 15 mins followed by substrate addition measured after 10 mins by dinitrosalicylic acid reagent based assay
T1 sequence (P00690 whole entry): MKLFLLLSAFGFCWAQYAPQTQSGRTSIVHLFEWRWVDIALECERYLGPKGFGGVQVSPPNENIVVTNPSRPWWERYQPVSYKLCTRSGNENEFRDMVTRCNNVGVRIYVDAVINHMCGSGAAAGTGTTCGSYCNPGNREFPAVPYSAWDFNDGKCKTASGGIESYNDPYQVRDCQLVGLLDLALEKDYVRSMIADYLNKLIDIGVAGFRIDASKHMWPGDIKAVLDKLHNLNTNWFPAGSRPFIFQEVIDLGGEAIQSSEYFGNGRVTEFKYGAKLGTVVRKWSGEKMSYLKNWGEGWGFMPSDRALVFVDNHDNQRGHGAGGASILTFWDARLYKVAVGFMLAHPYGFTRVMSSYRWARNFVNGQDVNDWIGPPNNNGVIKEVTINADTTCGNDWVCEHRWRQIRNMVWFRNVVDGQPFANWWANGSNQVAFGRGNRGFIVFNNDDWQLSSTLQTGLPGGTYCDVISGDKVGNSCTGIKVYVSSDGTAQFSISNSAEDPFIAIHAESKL

[1] = Inhibition of yeast alpha-glucosidase using 4-nitrophenyl-alpha-D-glucopyranoside as substrate preincubated for 15 mins followed by substrate addition measured after 20 mins; parameters: species or system Saccharomyces cerevisiae

SMILES | IC50 (Pancreatic alpha-amylase) [µM] | IC50 [1] [µM]
C[C@H]1[C@H](C)CC[C@]2(C(=O)O[C@@H]3O[C@H](CO[C@@H]4O[C@H](CO)[C@@H](O[C@@H]5O[C@@H](C)[C@H](O)[C@@H](O)[C@H]5O)[C@H](O)[C@H]4O)[C@@H](O)[C@H](O)[C@H]3O)CC[C@]3(C)C(=CC[C@@H]4[C@@]5(C)C[C@@H](O)[C@H](O)[C@@](C)(CO)[C@@H]5CC[C@]43C)[C@H]12 | > 200 | > 200
C[C@H]1O[C@H](O[C@H]2[C@H](O)[C@@H](O)[C@@H](O[C@H]3[C@H](O)[C@@H](O)C(O)O[C@@H]3CO)O[C@@H]2CO)[C@H](O)[C@@H](O)[C@@H]1N[C@H]1C=C(CO)[C@@H](O)[C@H](O)[C@H]1O (some centres not stated) [ACARBOSE] |  | 2480
C[C@H]1[C@H](C)CC[C@]2(C(=O)O)CC[C@]3(C)C(=CC[C@@H]4[C@@]5(C)C[C@@H](O)[C@H](O)[C@@](C)(CO)[C@@H]5CC[C@]43C)[C@H]12 [ASIATIC ACID] | > 200 | 100
C=C(C)[C@@H]1CC[C@]2(C(=O)O)CC[C@]3(C)[C@H](CC[C@@H]4[C@@]5(C)CC[C@H](O)C(C)(C)[C@@H]5CC[C@]43C)[C@@H]12 [BETULINIC ACID] | > 200 | 14.9
C=C(C)[C@@H]1CC[C@]2(CO)CC[C@]3(C)[C@H](CC[C@@H]4[C@@]5(C)CC[C@H](O)C(C)(C)[C@@H]5CC[C@]43C)[C@@H]12 [BETULIN] | > 200 | 52.5
C[C@H]1[C@H](C)CC[C@]2(C(=O)O)CC[C@]3(C)C(=CC[C@@H]4[C@@]5(C)C[C@@H](O)[C@H](O)C(C)(C)[C@@H]5CC[C@]43C)[C@H]12 [COROSOLIC ACID] | 31.2 | 17.2
CC1(C)[C@@H](O)CC[C@]2(C)[C@H]3C(=O)C=C4[C@@H]5C[C@@](C)(C(=O)O)CC[C@]5(C)CC[C@@]4(C)[C@]3(C)CC[C@@H]12 [ENOXOLONE] | > 200 | > 200
CC1(C)[C@@H](O[C@H]2O[C@H](C(=O)O)[C@@H](O)[C@H](O)[C@H]2O[C@@H]2O[C@H](C(=O)O)[C@@H](O)[C@H](O)[C@H]2O)CC[C@]2(C)[C@H]3C(=O)C=C4[C@@H]5C[C@@](C)(C(=O)O)CC[C@]5(C)CC[C@@]4(C)[C@]3(C)CC[C@@H]12 [GLYCYRRHIZIN] | > 200 | > 200
CC1(C)CC[C@]2(C(=O)O)CC[C@]3(C)C(=CC[C@@H]4[C@@]5(C)CC[C@H](O)C(C)(C)[C@@H]5CC[C@]43C)[C@@H]2C1 [OLEANOLIC_ACID] |  | 35.6
C[C@H]1[C@H](C)CC[C@]2(C(=O)O)CC[C@]3(C)C(=CC[C@@H]4[C@@]5(C)CC[C@H](O)C(C)(C)[C@@H]5CC[C@]43C)[C@H]12 [URSOLIC ACID] |  | 12.1
